These results are taken from patent US7507727B2, “Substituted quinobenzoxazine analogs and methods of using thereof” (Cylene Pharmaceuticals, Inc., priority 2003, dated 2009).

One experiment concerns HeLa cells. Put plainly: MTS cell proliferation and/or cytotoxicity assay. It counts as cell-based, Human. The note with it: Homo sapiens, HeLa, 72 h, concentration at which 50% of antiproliferative cell response is seen; 3 days incubation; read-out: MTS Data Hella. The protocol:
Cell culture. Human cervical epithelial cells (HeLa cells) were obtained from American Type Culture Collection (Manassas, Va.). Cells were grown in Eagle's minimum essential medium (MEM, Hyclone, Utah) supplemented with 2 mM Glutamine, 0.1 mM nonessential amino acid, 1 mM Na Pyruvate, 1.5 g/L NaHCO3, 50 mg/L gentamicin, and 10% fetal bovine serum (Hyclone, USA) in a humidified atmosphere of 5% CO2 at 37° C.
MTS assays. Antiproliferative effects of the compounds were tested by the CellTiter 96 AQueous assay (Promega, WI), which is a calorimetric assay for determining the number of viable cells. (See, e.g., Wang, L., et al., Methods Cell Sci (1996) 18:249-255). In one example, cells (4,500 cells/well) were seeded on 96 well flat bottom plates (Corning, N.Y.) in 100 μl of culture medium without any anticancer drug on day 0, and the culture medium was exchanged for that //contained anticancer drugs at various concentrations on day 1. After incubation for 3 days under normal growth conditions (on day 4), the monolayers were washed once in PBS, and the medium was switched to 100 μl of PBS in each of the 96 well plate. After mixing MTS and PMS at the ratio of 20:1, 20 μl of MTS/PMS solution was added to each of the 96 well plate and incubated for 4 hours in a humidified atmosphere of 5% CO2 at 37° C. The absorbance was read at 490 nm using FLUOstar Galaxy 96 well plate reader (BMG Labtechnologies, Germany). μM concentrations (MTS data) reported in Table 1 are concentrations at which 50% of antiproliferative cell response is seen.
Regarding `O=C(NCCCn1ccnc1)c1cn2c3c(c(NCCN4CCCC4)c(F)cc3c1=O)Oc1cc3c(cc1-2)oc1ccccc13` [compound 368], the IC50 was 3.6 µM.

As for `CN(C)CCCCNc1c(F)cc2c(=O)c(C(=O)NCCN3CCCC3)cn3c4cc5c(cc4oc1c23)c(=O)c1ccccc15` [compound 515], the IC50 stood at 2.5 µM.

As for `CN1CCN(CCCNC(=O)c2cn3c4c(c(N5CC[C@@H](NC(=O)CCNCCC6CCCN6C)C5)c(F)cc4c2=O)Oc2cc4c(cc2-3)oc2ccccc24)CC1` (stereo partly shown) [compound 573], the IC50 turned out to be 4.5 µM.

In the case of `O=C(NCCN1CCCC1)c1cn2c3c(c(N4CC5CCCNC5C4)c(F)cc3c1=O)Oc1cc3ccccc3cc1-2` (stereo not shown) [compound 545], the IC50 stood at 0.15 µM.

In the case of `CCN(CC)CCCC(C)NC(=O)c1cn2c3c(c(N4CCC(c5cnccn5)C4)c(F)cc3c1=O)Oc1ccccc1-2` (stereo not shown) [compound 28], the IC50 was determined as 2.5 µM.

As to `O=C(NCCN1CCCC1)c1cn2c3c(c(NCC4CCCO4)c(F)cc3c1=O)Oc1cc3ccccc3cc1-2` (stereo not shown) [compound 31], the IC50 was 1.4 µM.

Take `CCN(CC)CCCC(C)NC(=O)c1cn2c3c(c(N4CC5CCCNC5C4)c(F)cc3c1=O)Oc1cc3ccccc3cc1-2` (stereo not shown) [compound 385]: the IC50 turned out to be 0.36 µM.

As for `O=C(CCNCCN1CCOCC1)N[C@@H]1CCN(c2c(F)cc3c(=O)c(C(=O)NCCN4CCCC4)cn4c3c2Oc2cc3c(cc2-4)oc2ccccc23)C1` [compound 358], the IC50 was determined as 5.7 µM.

With `N[C@@H]1CCN(c2c(F)cc3c(=O)c(C(=O)NCCC4CCCN4)cn4c3c2Oc2cc3c(cc2-4)oc2ccccc23)C1` (stereo partly shown) [compound 563], the IC50 turned out to be 0.31 µM.

On to `CN(C)/C=N/CCCNC(=O)c1cn2c3c(c(N4CC[C@@H](N)C4)c(F)cc3c1=O)Oc1cc3ccccc3cc1-2` [compound 371], for which the IC50 was determined as 3.5 µM.

For the compound `O=C(NCCN1CCCC1)c1cn2c3c(c(NCCCN4CCOCC4)c(F)cc3c1=O)Oc1cc3c(cc1-2)-c1ccccc1C3` [compound 373], the IC50 is 3.3 µM.

`NC(N)=NCCCNC(=O)c1cn2c3c(c(N4CC[C@@H](N)C4)c(F)cc3c1=O)Oc1cc3ccccc3cc1-2` [compound 512]: the IC50 worked out at 3.1 µM.

Turning to `CN1CCCC1CCNC(=O)c1cn2c3c(c(N4CCC(N)C4)c(F)cc3c1=O)Oc1cc3c(cc1-2)Cc1ccccc1-3` (stereo not shown) [compound 537], the IC50 is 0.29 µM.

Regarding `N[C@@H]1CCN(c2c(F)cc3c(=O)c(C(=O)NCCCN4CCOCC4)cn4c3c2Oc2cc3ccccc3cc2-4)C1` [compound 386], the IC50 turned out to be 0.34 µM.

`N[C@H]1CCN(c2c(F)cc3c(=O)c(C(=O)NCCN4CCCC4)cn4c3c2Oc2cc3ccccc3cc2-4)C1` [compound 341]: the IC50 turned out to be 0.28 µM.

As for `CN(CCc1ccccn1)C(=O)c1cn2c3c(c(NCCCN4CCOCC4)c(F)cc3c1=O)Oc1cc3c(cc1-2)-c1ccccc1C3` [compound 307], the IC50 was 3.1 µM.

With `N[C@@H]1CCN(c2c(F)cc3c(=O)c(C(=O)NCCN4CCCC4)cn4c3c2Oc2ccccc2-4)C1` [compound 112], the IC50 stood at 0.22 µM.

For the compound `Nc1c(F)c(NCCCN2CCOCC2)c2c3c1c(=O)c(C(=O)NCCN1CCCC1)cn3-c1cc3ccccc3cc1O2` [compound 377], the IC50 is 2.2 µM.

Take `Nc1c(F)c(N2CCC(N)C2)c2c3c1c(=O)c(C(=O)O)cn3-c1cc3ccccc3cc1O2` (stereo not shown) [compound 5]: the IC50 is 7.2 µM.

On to `CN1CCCC1CCNC(=O)c1cn2c3c(c(NCCCN(CCO)CCO)c(F)cc3c1=O)Oc1cc3ccccc3cc1-2` (stereo not shown) [compound 534], for which the IC50 amounted to 0.4 µM.

The next experiment has as its target c-Myc template DNA (c-myc quadruplex). Put plainly: Quadruplex binding / stop assay (Taq polymerase arrest, capillary electrophoresis). The note with it: read-out: Stop Data c-Myc μM; concentration at which 50% of the DNA was arrested (arrested:full-length 1:1).
Consider `O=C(NCCCn1ccnc1)c1cn2c3c(c(NCCN4CCCC4)c(F)cc3c1=O)Oc1cc3c(cc1-2)oc1ccccc13` [compound 368], for which the IC50 came to 0.75 µM.

Regarding `CN(C)CCCCNc1c(F)cc2c(=O)c(C(=O)NCCN3CCCC3)cn3c4cc5c(cc4oc1c23)c(=O)c1ccccc15` [compound 515], the IC50 stood at 0.375 µM.

Regarding `CN1CCN(CCCNC(=O)c2cn3c4c(c(N5CC[C@@H](NC(=O)CCNCCC6CCCN6C)C5)c(F)cc4c2=O)Oc2cc4c(cc2-3)oc2ccccc24)CC1` (stereo partly shown) [compound 573], the IC50 stood at 0.18 µM.

Take `O=C(NCCN1CCCC1)c1cn2c3c(c(N4CC5CCCNC5C4)c(F)cc3c1=O)Oc1cc3ccccc3cc1-2` (stereo not shown) [compound 545]: the IC50 came out at 0.375 µM.

On to `CCN(CC)CCCC(C)NC(=O)c1cn2c3c(c(N4CCC(c5cnccn5)C4)c(F)cc3c1=O)Oc1ccccc1-2` (stereo not shown) [compound 28], for which the IC50 was 3 µM.

Consider `O=C(NCCN1CCCC1)c1cn2c3c(c(NCC4CCCO4)c(F)cc3c1=O)Oc1cc3ccccc3cc1-2` (stereo not shown) [compound 31], for which the IC50 worked out at 3 µM.

Regarding `CCN(CC)CCCC(C)NC(=O)c1cn2c3c(c(N4CC5CCCNC5C4)c(F)cc3c1=O)Oc1cc3ccccc3cc1-2` (stereo not shown) [compound 385], the IC50 amounted to 0.75 µM.

Turning to `O=C(CCNCCN1CCOCC1)N[C@@H]1CCN(c2c(F)cc3c(=O)c(C(=O)NCCN4CCCC4)cn4c3c2Oc2cc3c(cc2-4)oc2ccccc23)C1` [compound 358], the IC50 was 0.75 µM.

Turning to `N[C@@H]1CCN(c2c(F)cc3c(=O)c(C(=O)NCCC4CCCN4)cn4c3c2Oc2cc3c(cc2-4)oc2ccccc23)C1` (stereo partly shown) [compound 563], the IC50 was 0.25 µM.

As to `CN(C)/C=N/CCCNC(=O)c1cn2c3c(c(N4CC[C@@H](N)C4)c(F)cc3c1=O)Oc1cc3ccccc3cc1-2` [compound 371], the IC50 worked out at 0.75 µM.

For the compound `O=C(NCCN1CCCC1)c1cn2c3c(c(NCCCN4CCOCC4)c(F)cc3c1=O)Oc1cc3c(cc1-2)-c1ccccc1C3` [compound 373], the IC50 was 0.75 µM.

On to `NC(N)=NCCCNC(=O)c1cn2c3c(c(N4CC[C@@H](N)C4)c(F)cc3c1=O)Oc1cc3ccccc3cc1-2` [compound 512], for which the IC50 was 0.375 µM.

For the compound `CN1CCCC1CCNC(=O)c1cn2c3c(c(N4CCC(N)C4)c(F)cc3c1=O)Oc1cc3c(cc1-2)Cc1ccccc1-3` (stereo not shown) [compound 537], the IC50 came out at 0.375 µM.

On to `N[C@@H]1CCN(c2c(F)cc3c(=O)c(C(=O)NCCCN4CCOCC4)cn4c3c2Oc2cc3ccccc3cc2-4)C1` [compound 386], for which the IC50 is 0.75 µM.

For the compound `N[C@H]1CCN(c2c(F)cc3c(=O)c(C(=O)NCCN4CCCC4)cn4c3c2Oc2cc3ccccc3cc2-4)C1` [compound 341], the IC50 was 0.9 µM.

Turning to `CN(CCc1ccccn1)C(=O)c1cn2c3c(c(NCCCN4CCOCC4)c(F)cc3c1=O)Oc1cc3c(cc1-2)-c1ccccc1C3` [compound 307], the IC50 is 1 µM.

Regarding `N[C@@H]1CCN(c2c(F)cc3c(=O)c(C(=O)NCCN4CCCC4)cn4c3c2Oc2ccccc2-4)C1` [compound 112], the IC50 came to 1.75 µM.

`Nc1c(F)c(NCCCN2CCOCC2)c2c3c1c(=O)c(C(=O)NCCN1CCCC1)cn3-c1cc3ccccc3cc1O2` [compound 377]: the IC50 turned out to be 0.75 µM.

`Nc1c(F)c(N2CCC(N)C2)c2c3c1c(=O)c(C(=O)O)cn3-c1cc3ccccc3cc1O2` (stereo not shown) [compound 5]: the IC50 was found to be 1.75 µM.

Turning to `CN1CCCC1CCNC(=O)c1cn2c3c(c(NCCCN(CCO)CCO)c(F)cc3c1=O)Oc1cc3ccccc3cc1-2` (stereo not shown) [compound 534], the IC50 came to 0.375 µM.
